Measurements published in patent US8722849B2, “Polypeptides” (Novo Nordisk A/S, priority 2011, dated 2014).
Converted amounts (≈) assume the structure as drawn. Where two headings read alike, the source gives them in different places. Starred links: 1 amine or outer side, 2 acyl side, 3 side chain; linkers in the order of their positions; H or OH if unused. Positions of bridges follow the written chain, without caps; N, C: chain ends. Residues, ends and D or L forms follow the SMILES beside them. *: point of attachment. C20 diacid = O=C(O)CCCCCCCCCCCCCCCCCCC(=O)*; γGlu = O=C(O)[C@H](CCC(=O)[*:2])N[*:1]

Legend:
[1] = Assay (III) ThT fibrillation assay for physical stability; type: physicochemical; conditions: ThT fibrillation assay
Summary of the method: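 Freshly prepared formulations, pH-adjusted, with 1 μM ThT; four or eight replicates incubated at 37 °C under 960 rpm orbital shaking. Fluorescence (ex 444/em 485 nm) read every 20 min; […]. Peptide concentration measured by RP-HPLC before and after the run.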

[2] = target: T1, human calcitonin receptor (Homo sapiens, UniProt P30988); assay: Assay (II)a functional CRE-luciferase assay, human calcitonin receptor; type: cell-based; conditions: Table 7; human calcitonin (CTa) receptor
T1 construct: expressed in transfected cells; host or cells: BHK570
T1 sequence (P30988 25-474): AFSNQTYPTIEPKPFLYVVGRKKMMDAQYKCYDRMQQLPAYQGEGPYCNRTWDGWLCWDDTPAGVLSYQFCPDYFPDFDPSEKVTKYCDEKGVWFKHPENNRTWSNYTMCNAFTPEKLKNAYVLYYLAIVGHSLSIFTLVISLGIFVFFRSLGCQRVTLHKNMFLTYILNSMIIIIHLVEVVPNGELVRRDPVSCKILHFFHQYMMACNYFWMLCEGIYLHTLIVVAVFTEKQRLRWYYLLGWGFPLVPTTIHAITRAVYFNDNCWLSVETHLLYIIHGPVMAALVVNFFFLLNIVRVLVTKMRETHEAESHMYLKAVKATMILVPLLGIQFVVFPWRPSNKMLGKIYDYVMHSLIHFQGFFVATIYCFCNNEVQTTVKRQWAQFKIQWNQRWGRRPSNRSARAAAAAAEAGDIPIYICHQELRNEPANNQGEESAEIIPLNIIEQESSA

[3] = target: T2, human amylin receptor (amylin 3(a) receptor: human calcitonin receptor + RAMP-3) (Homo sapiens, UniProt O60896+P30988); assay: Assay (II)a functional CRE-luciferase assay, human amylin receptor; type: cell-based; conditions: Table 2; BHK amylin 3(a)-receptor/CRE-luc cells
T2 construct: expressed in transfected cells; host or cells: BHK570
T2 sequence (P30988 25-474): T1 sequence (P30988 25-474)
T2 sequence (O60896 24-148 partner): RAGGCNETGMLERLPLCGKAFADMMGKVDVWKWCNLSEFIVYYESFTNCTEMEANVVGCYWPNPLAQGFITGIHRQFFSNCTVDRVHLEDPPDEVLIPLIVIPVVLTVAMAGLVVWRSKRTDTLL

[4] = Assay (IV) determination of solubility; type: physicochemical
Summary of the method: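 Polypeptide in water (~500 nmol/ml stock) was mixed 1:1 with 100 mM buffers from pH 3.0 to 8.0 (glycylglycine pH 3.0–5.0; bistrispropane pH 6.0–8.0). After 18 hours at room temperature, samples were centrifuged and the polypeptide remaining in solution was quantified by HPLC.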

[5] = bistrispropane buffer, pH 6, pH 6.0, read-out: Solubility pH 6.0
[6] = bistrispropane buffer, pH 6.5, pH 6.5, read-out: Solubility pH 6.5
[7] = bistrispropane buffer, pH 7, pH 7.0, read-out: Solubility pH 7.0
[8] = bistrispropane buffer, pH 7.5, pH 7.5, read-out: Solubility pH 7.5
[9] = bistrispropane buffer, pH 8, pH 8.0, read-out: Solubility pH 8.0
[10] = glycylglycine buffer, pH 3, pH 3.0, read-out: Solubility pH 3.0
[11] = glycylglycine buffer, pH 4, pH 4.0, 18 hours at room temperature, Table 2, read-out: Solubility pH 4.0
[12] = glycylglycine buffer, pH 4, pH 4.0, read-out: Solubility pH 4.0
[13] = glycylglycine buffer, pH 5, pH 5.0, read-out: Solubility pH 5.0
[14] = bistrispropane buffer, pH 7, pH 7.0, 18 hours at room temperature, Table 3, read-out: Solubility pH 7.0

For `CC[C@H](C)[C@H](NC(=O)[C@@H]1CCCN1C(=O)CNC(=O)[C@H](Cc1ccccc1)NC(=O)[C@H](CC(N)=O)NC(=O)[C@H](CC(N)=O)NC(=O)[C@H](CO)NC(=O)[C@H](CO)NC(=O)[C@H](Cc1c[nH]cn1)NC(=O)[C@H](Cc1c[nH]cn1)NC(=O)[C@H](CC(C)C)NC(=O)[C@H](Cc1ccccc1)NC(=O)[C@H](CCC(=O)O)NC(=O)[C@H](C)NC(=O)[C@H](CC(C)C)NC(=O)[C@H](CCCNC(=N)N)NC(=O)[C@H](CCC(N)=O)NC(=O)[C@@H](NC(=O)[C@H](C)NC(=O)[C@@H]1CSSC[C@H](NC(=O)[C@H](CO)NC(=O)CC[C@H](NC(=O)CCCCCCCCCCCCCCCCCCC(=O)O)C(=O)O)C(=O)N[C@@H](CC(N)=O)C(=O)N[C@@H]([C@@H](C)O)C(=O)N[C@@H](C)C(=O)N[C@@H]([C@@H](C)O)C(=O)N1)[C@@H](C)O)C(=O)N[C@@H](CC(C)C)C(=O)N1CCC[C@H]1C(=O)N1CCC[C@H]1C(=O)N[C@H](C(=O)N[C@@H](CC(N)=O)C(=O)N[C@H](C(=O)NCC(=O)N[C@@H](CO)C(=O)N[C@@H](Cc1c[nH]cn1)C(=O)N[C@H](C(=O)N[C@@H](Cc1ccc(O)cc1)C(N)=O)[C@@H](C)O)C(C)C)[C@@H](C)O` [Example 107, N-alpha-[(S)-4-Carboxy-4-(19-carboxynonadecanoylamino)butyryl]-[Ser1,Glu14,His17,His35]-pramlintide] ({C20 diacid-γGlu}-SCNTATCATQRLAEFLHHSSNNFGPILPPTNVGSHTY-NH2; disulfide 2-7), the “ThT pH 4.0 lag time (h)” value [1] was 19 h, the EC50 [2] was 0.171 nM and the EC50 [3] was 0.225 nM. For the same compound, the solubility at 18 h [4, 5] was 49 µM (≈ 217 µg/mL), the solubility at 18 h [4, 6] was 4 µM (≈ 17.8 µg/mL) and the solubility at 18 h [4, 7] was 27 µM (≈ 120 µg/mL). For the same compound, the solubility at 18 h [4, 8] was 174 µM (≈ 772 µg/mL), the solubility at 18 h [4, 9] was > 200 µM and the solubility at 18 h [4, 10] was > 200 µM. For the same compound, the solubility at 18 h [4, 11] was > 200 µM, the solubility at 18 h [4, 12] was > 200 µM and the solubility at 18 h [4, 13] was > 200 µM.
With `CC[C@H](C)[C@H](NC(=O)[C@@H]1CCCN1C(=O)CNC(=O)[C@H](Cc1ccccc1)NC(=O)[C@H](CC(N)=O)NC(=O)[C@H](CC(N)=O)NC(=O)[C@H](CO)NC(=O)[C@H](CO)NC(=O)[C@H](Cc1c[nH]cn1)NC(=O)[C@@H](NC(=O)[C@H](CC(C)C)NC(=O)[C@H](Cc1ccccc1)NC(=O)[C@H](CCC(=O)O)NC(=O)[C@H](C)NC(=O)[C@H](CC(C)C)NC(=O)[C@H](CCCNC(=N)N)NC(=O)[C@H](CCC(N)=O)NC(=O)[C@@H](NC(=O)[C@H](C)NC(=O)[C@@H]1CSSC[C@H](NC(=O)CC[C@H](NC(=O)CCCCCCCCCCCCCCCCCCC(=O)O)C(=O)O)C(=O)N[C@@H](CC(N)=O)C(=O)N[C@@H]([C@@H](C)O)C(=O)N[C@@H](C)C(=O)N[C@@H]([C@@H](C)O)C(=O)N1)[C@@H](C)O)C(C)C)C(=O)N[C@@H](CC(C)C)C(=O)N1CCC[C@H]1C(=O)N1CCC[C@H]1C(=O)N[C@H](C(=O)N[C@@H](CC(N)=O)C(=O)N[C@H](C(=O)NCC(=O)N[C@@H](CO)C(=O)N[C@@H](CC(N)=O)C(=O)N[C@H](C(=O)N1CCC[C@H]1C(N)=O)[C@@H](C)O)C(C)C)[C@@H](C)O` [Example 108, N-alpha-[(S)-4-Carboxy-4-(19-carboxynonadecanoylamino)butyryl]-[des1,Glu14,Pro37]-pramlintide] ({C20 diacid-γGlu}-CNTATCATQRLAEFLVHSSNNFGPILPPTNVGSNTP-NH2; disulfide 1-6 (inferred)) the “ThT pH 4.0 lag time (h)” value [1] was 2.7 h, the EC50 [2] was 0.0735 nM and the EC50 [3] was 0.088 nM. For the same compound, the solubility at 18 h [4, 5] was 193 µM (≈ 815 µg/mL), the solubility at 18 h [4, 6] was > 200 µM and the solubility at 18 h [4, 14] was > 200 µM. The solubility at 18 h [4, 7] was > 200 µM, the solubility at 18 h [4, 8] was > 200 µM and the solubility at 18 h [4, 9] was > 200 µM. The solubility at 18 h [4, 10] was > 200 µM, the solubility at 18 h [4, 11] was > 200 µM and the solubility at 18 h [4, 12] was > 200 µM. For the same compound, the solubility at 18 h [4, 13] was > 200 µM.
For `CC[C@H](C)[C@H](NC(=O)[C@@H]1CCCN1C(=O)CNC(=O)[C@H](Cc1ccccc1)NC(=O)[C@H](CC(N)=O)NC(=O)[C@H](CC(N)=O)NC(=O)[C@H](CO)NC(=O)[C@H](CO)NC(=O)[C@H](Cc1c[nH]cn1)NC(=O)[C@@H](NC(=O)[C@H](CC(C)C)NC(=O)[C@H](Cc1ccccc1)NC(=O)[C@H](CCC(=O)O)NC(=O)[C@H](C)NC(=O)[C@H](CC(C)C)NC(=O)[C@H](CCCNC(=N)N)NC(=O)[C@H](CCC(N)=O)NC(=O)[C@@H](NC(=O)[C@H](C)NC(=O)[C@@H]1CSSC[C@H](NC(=O)[C@H](Cc2c[nH]cn2)NC(=O)CC[C@H](NC(=O)CCCCCCCCCCCCCCCCCCC(=O)O)C(=O)O)C(=O)N[C@@H](CC(N)=O)C(=O)N[C@@H]([C@@H](C)O)C(=O)N[C@@H](C)C(=O)N[C@@H]([C@@H](C)O)C(=O)N1)[C@@H](C)O)C(C)C)C(=O)N[C@@H](CC(C)C)C(=O)N1CCC[C@H]1C(=O)N1CCC[C@H]1C(=O)N[C@H](C(=O)N[C@@H](CC(N)=O)C(=O)N[C@H](C(=O)NCC(=O)N[C@@H](CO)C(=O)N[C@@H](CC(N)=O)C(=O)N[C@H](C(=O)N1CCC[C@H]1C(N)=O)[C@@H](C)O)C(C)C)[C@@H](C)O` [Example 109, N-alpha-[(S)-4-Carboxy-4-(19-carboxynonadecanoylamino)butyryl]-[His1,Glu14,Pro37]-pramlintide] ({C20 diacid-γGlu}-HCNTATCATQRLAEFLVHSSNNFGPILPPTNVGSNTP-NH2; disulfide 2-7 (inferred); C-terminus assumed), the “ThT pH 4.0 lag time (h)” value [1] was 6.3 h, the EC50 [2] was 0.0725 nM and the EC50 [3] was 0.0845 nM. For the same compound, the solubility at 18 h [4, 5] was > 200 µM, the solubility at 18 h [4, 6] was > 200 µM and the solubility at 18 h [4, 14] was > 200 µM. The solubility at 18 h [4, 7] was > 200 µM, the solubility at 18 h [4, 8] was > 200 µM and the solubility at 18 h [4, 9] was > 200 µM. The solubility at 18 h [4, 10] was > 200 µM, the solubility at 18 h [4, 11] was > 200 µM and the solubility at 18 h [4, 12] was > 200 µM. For the same compound, the solubility at 18 h [4, 13] was > 200 µM.
For `CC[C@H](C)[C@H](NC(=O)[C@@H]1CCCN1C(=O)CNC(=O)[C@H](Cc1ccccc1)NC(=O)[C@H](CC(N)=O)NC(=O)[C@H](CO)NC(=O)[C@H](CO)NC(=O)[C@H](CO)NC(=O)[C@H](Cc1c[nH]cn1)NC(=O)[C@@H](NC(=O)[C@H](CC(C)C)NC(=O)[C@H](Cc1ccccc1)NC(=O)[C@H](CCC(=O)O)NC(=O)[C@H](C)NC(=O)[C@H](CC(C)C)NC(=O)[C@H](CCCNC(=N)N)NC(=O)[C@H](CCC(N)=O)NC(=O)[C@@H](NC(=O)[C@H](C)NC(=O)[C@@H]1CSSC[C@H](NC(=O)[C@H](Cc2c[nH]cn2)NC(=O)CC[C@H](NC(=O)CCCCCCCCCCCCCCCCCCC(=O)O)C(=O)O)C(=O)N[C@@H](CC(N)=O)C(=O)N[C@@H]([C@@H](C)O)C(=O)N[C@@H](C)C(=O)N[C@@H]([C@@H](C)O)C(=O)N1)[C@@H](C)O)C(C)C)C(=O)N[C@@H](CC(C)C)C(=O)N[C@@H](CO)C(=O)N[C@@H](CO)C(=O)N[C@H](C(=O)N[C@@H](CC(N)=O)C(=O)N[C@H](C(=O)NCC(=O)N[C@@H](CO)C(=O)N[C@@H](Cc1c[nH]cn1)C(=O)N[C@H](C(=O)N[C@@H](Cc1ccc(O)cc1)C(N)=O)[C@@H](C)O)C(C)C)[C@@H](C)O` [Example 110, N-alpha-[(S)-4-Carboxy-4-(19-carboxynonadecanoylamino)butyryl]-[His1,Glu14,Ser21,Ser28,Ser29,His35]-pramlintide] ({C20 diacid-γGlu}-HCNTATCATQRLAEFLVHSSSNFGPILSSTNVGSHTY-NH2; disulfide 2-7 (inferred)), the “ThT pH 4.0 lag time (h)” value [1] was 1.7 h, the EC50 [2] was 0.349 nM and the EC50 [3] was 0.921 nM. It also gave a solubility at 18 h [4, 5] of 1 µM (≈ 4.4 µg/mL), a solubility at 18 h [4, 6] of 1 µM (≈ 4.4 µg/mL) and a solubility at 18 h [4, 7] of 1 µM (≈ 4.4 µg/mL). For the same compound, the solubility at 18 h [4, 8] was 1 µM (≈ 4.4 µg/mL), the solubility at 18 h [4, 10] was > 200 µM and the solubility at 18 h [4, 11] was > 200 µM. For the same compound, the solubility at 18 h [4, 12] was > 200 µM, the solubility at 18 h [4, 13] was > 200 µM and the solubility at 18 h ([4]; pH 8.0, read-out: Solubility pH 8.0) was 1 µM (≈ 4.4 µg/mL).
